Key:
[1] = refractive index (Na D-line) (dimensionless); conditions: 303.15 K; 101.33 kPa; Liquid
[2] = 101.3 kPa, Liquid
[3] = refractive index (Na D-line) (dimensionless); xn = mol fraction of the nth substance listed; conditions: 303.15 K, 101.3 kPa, Liquid
[4] = xn = mol fraction of the nth substance listed; conditions: 101.3 kPa, Liquid

C1CCOC1 [tetrahydrofuran]
Conditions	refractive index
[1]	1.4048

[2]
Conditions	mass density [kg/m3]	viscosity [mPa·s]
303.15 K	876.6	0.463
313.15 K	865.65	0.4
323.15 K	854.3	0.372

C1COCCO1 [1,4-dioxane] + O
[3]
Conditions	refractive index
x2 = 0	1.4181
x2 = 0.3523	1.4116
x2 = 0.5503	1.4046
x2 = 0.6772	1.3972
x2 = 0.7654	1.391
x2 = 0.8304	1.3865
x2 = 0.8801	1.3798
x2 = 0.9195	1.3698
x2 = 0.9514	1.3517
x2 = 0.9778	1.3417

mass density [kg/m3], [4]
Conditions	x2 = 0	x2 = 0.3523	x2 = 0.5503	x2 = 0.6772	x2 = 0.7654	x2 = 0.8304	x2 = 0.8801	x2 = 0.9195	x2 = 0.9514	x2 = 0.9778
303.15 K	1024.63	1029.1	1032.4	1033.83	1033.22	1030.5	1025.6	1019.51	1012.1	1004.1
313.15 K	1013.3	1018.5	1022.6	1024.7	1024.7	1022.7	1018.7	1013.4	1006.9	999.8
323.15 K	1001.9	1007.8	1012.5	1015.2	1015.9	1014.6	1011.4	1006.9	1001.3	994.9

C1CCOC1 [tetrahydrofuran] + O
[3]
Conditions	refractive index
x2 = 0	1.4048
x2 = 0.3523	1.3994
x2 = 0.5503	1.3946
x2 = 0.6772	1.387
x2 = 0.7654	1.3786
x2 = 0.8304	1.3684
x2 = 0.8801	1.3613
x2 = 0.9195	1.3546
x2 = 0.9514	1.3405
x2 = 0.9778	1.3386

[4]
Conditions	mass density, 303.15 K [kg/m3]	mass density, 313.15 K [kg/m3]	mass density, 323.15 K [kg/m3]	viscosity, 303.15 K [mPa·s]	viscosity, 313.15 K [mPa·s]	viscosity, 323.15 K [mPa·s]
x2 = 0	876.6	865.65	854.3	0.463	0.4	0.372
x2 = 0.3081	894.98	884.04	872.9	0.574	0.519	0.34
x2 = 0.5004	912.11	901.53	890.7	0.793	0.668	0.578
x2 = 0.6319	927.1	916.82	901.63	1.001	0.833	0.698
x2 = 0.7276	941.82	931.96	921.9	1.208	0.98	0.807
x2 = 0.8002	955.23	945.99	936.5	1.344	1.061	0.868
x2 = 0.8573	966.73	958.34	949.3	1.384	1.084	0.871
x2 = 0.9034	977.2	969.74	962.2	1.341	1.021	0.829
x2 = 0.9413	984.94	–	972.7	1.226	0.92	0.74
x2 = 0.973	990.31	990.31	980.8	1.003	0.803	0.641

O [water] + C1CCOC1
Conditions	refractive index
[3], x1 = 1	1.3326

[4], x1 = 1
Conditions	mass density [kg/m3]	viscosity [mPa·s]
303.15 K	–	0.754
313.15 K	991.91	0.624
323.15 K	985.7	0.544

O [water] + C1COCCO1
Conditions	refractive index
[3], x1 = 1	1.3326

Conditions	mass density [kg/m3]
[4], 313.15 K, x1 = 1	992.3

C1COCCO1 [1,4-dioxane]
Conditions	refractive index
[1]	1.4181

[2]
Conditions	mass density [kg/m3]	viscosity [mPa·s]
303.15 K	1024.63	1.022
313.15 K	1013.3	0.871
323.15 K	1001.9	0.807
